Results taken from patent US12503485B2, “Human aminosterol ENT-03 compounds, related compositions comprising the same, and methods of using the same” (Enterin, Inc., priority 2019, dated 2025).
Several values for one entry are separate records, joined by “and”; a condition that tells them apart may be missing. Equal entries are not always repeated. Where two headings read alike, the source gives them in different places.

How the values were obtained:
PTPN1/PTP1B = molecular target: T1, PTPN1/PTP1B (Homo sapiens, UniProt P18031); test: Phosphatase profiling PTPN1/PTP1B, 10-dose IC50, fluorescence; type: biochemical
T1 construct: The enzyme was the human truncated form (1-321), recombinantly produced in Escherichia coli; host or cells: Escherichia coli
T1 sequence (P18031 1-321): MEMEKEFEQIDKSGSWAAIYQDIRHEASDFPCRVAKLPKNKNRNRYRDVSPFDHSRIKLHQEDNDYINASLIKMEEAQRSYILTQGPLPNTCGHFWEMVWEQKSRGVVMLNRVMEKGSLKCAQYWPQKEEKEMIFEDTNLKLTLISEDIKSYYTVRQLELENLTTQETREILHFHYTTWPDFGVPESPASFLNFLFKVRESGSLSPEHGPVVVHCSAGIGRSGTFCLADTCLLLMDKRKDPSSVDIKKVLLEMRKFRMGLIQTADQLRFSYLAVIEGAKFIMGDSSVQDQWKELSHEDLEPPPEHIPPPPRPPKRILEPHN

PTPN12/PTP-PEST = molecular target: T2, PTPN12/PTP-PEST (Homo sapiens, UniProt Q05209); test: Phosphatase assay PTPN12/PTP-PEST; type: biochemical
T2 construct: purchased Recation Biology Inc

PTPN11/SHP2 = PTPN11/SHP2 (Homo sapiens, UniProt Q06124); test: Phosphatase assay PTPN11/SHP2; type: biochemical; conditions: Table 2C; read-out: Compound IC50 (M) PTPN11/SHP2
PTPN11/SHP2-FL = molecular target: T3, PTPN11/SHP2-FL (Homo sapiens, UniProt Q06124); test: Phosphatase assay PTPN11/SHP2-FL with activating peptide; type: biochemical
T3 construct: aa 2-597, isoform 1 (canonical)); StrepII-TEV (N); His-tag (C); purchased Recation Biology Inc; host or cells: E. coli

[1] = molecular target: T4, PP2A Alpha/PP2R1A Complex (Homo sapiens, UniProt P67775); test: Phosphatase assay PP2A Alpha/PP2R1A Complex; type: biochemical
T4 construct: purchased Recation Biology Inc

[2] = tested on: transcriptomes of the stomach, jejunum and ileum; type: in vivo, mice
Method: Young (20 week) and aged (80 week) C57bl/6 male mice were administered ENT-03 (40 mg/kg) or vehicle (water) by oral gavage daily for 2 weeks. Over this period of time clinical observations were unremarkable as were the gross and microscopic examinations of the GI tract. The transcriptomes of the stomach, jejunum and ileum were analyzed by RNAseq technology. Comparative analyses of the transcripts from untreated animals identified numerous transcripts that differed in abundance between the corresponding tissues from old and young individuals. […] Thus, within these three distinct regions of the mouse GI tract, ageing is associated with changes in the transcriptome.
Statistical analysis of RNA-sequencing data was performed using R programming language. Transcripts with less than one read count per million reads in all samples of each tissue were removed. The raw count data for the samples were then normalised using trimmed mean of M-values normalisation and transformed with voom (Law et al., 2014), resulting in log 2-transformed counts per million with associated precision weights. […] Statistical comparisons were performed using linear modelling, as implemented in the Bioconductor package limma (Ritchie et al., 2015). Significance values (p-values) were adjusted for multiple testing using Benjamini-Hochberg procedure (Benjamini et al., 1995). For each comparison (e.g. group A versus group B), a positive log 2-transformed fold change indicates up-regulation in group A relative to group B.
To investigate the overlap between contrasts, the number of overlapping differentially expressed genes (defined using adjusted p-value <0.05) between all pairwise combinations of the comparisons performed were counted. For each comparison, the Jaccard index, defined as the intersection over the union, measures the similarity between the two contrasts under consideration. The p-value was calculated using a hypergeometric test taking into account the universe size under the assumption that the contrasts and genes are independent.

[3] = Pharmacokinetic study, intravenous administration in male SD rats; type: in vivo; conditions: rat plasma, I.V. 5 mg/kg
Method: The objective of this example was to determine the pharmacokinetic profile of ENT-03 (Compound III) via intravenous and oral administration in male SD Rats.
Animal feeding control: Animals were food fasted overnight prior to dosing and fed 4 hours after administration having free access to water.
PK Sample Analyses: Concentrations of ENT-03 (Compound III) in the plasma and dose samples were analyzed using a LC-MS/MS method. WinNonlin (Phoenix™, version 6.1) or other similar software was used for pharmacokinetic calculations. The following pharmacokinetic parameters were calculated, whenever possible from the plasma concentration versus time data.
IV Bolus administration: T1/2, C0, AUClast, AUCinf, MRTinf, Cl, Vss, Number of Points for Regression.

PS19 mice = test: Morris water maze, PS19 tauopathy mouse model; type: in vivo; conditions: 2.5 mg/kg i.p. once per week for 6 weeks, vs vehicle
Xenopus leavis tadpole = test: In vivo activity on Xenopus tadpole in water; conditions: 10 μg/ml in 500 ml distilled water, about 1 hour
Method: To assess the activity of ENT-05 in vivo, the compound was added to 500 ml of distilled water to a concentration of 10 μg/ml. A Xenopus leavis tadpole, premetamorphic, was placed into the solution. […] A second animal was placed in 500 ml of water, containing 10 μg/ml ENT-05, but also 50 mM NaCl. In this case, the animal survived. The animal was then transferred to spring water without either salt or ENT-05 and remained active over the following days.

[4] = individual animals Rat 1-3, listed as ENT-03 (Compound III), 5 mg/kg

T4 sequence (P67775 whole entry): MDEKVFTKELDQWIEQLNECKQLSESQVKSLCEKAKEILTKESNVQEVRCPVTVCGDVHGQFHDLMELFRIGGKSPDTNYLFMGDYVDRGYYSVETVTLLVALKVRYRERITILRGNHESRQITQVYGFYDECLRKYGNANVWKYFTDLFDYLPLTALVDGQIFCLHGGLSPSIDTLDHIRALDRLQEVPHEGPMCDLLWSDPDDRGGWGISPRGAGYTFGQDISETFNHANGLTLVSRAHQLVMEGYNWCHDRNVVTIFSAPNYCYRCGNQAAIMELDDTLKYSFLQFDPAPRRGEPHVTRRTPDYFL
T4 sequence (P30153 whole entry partner): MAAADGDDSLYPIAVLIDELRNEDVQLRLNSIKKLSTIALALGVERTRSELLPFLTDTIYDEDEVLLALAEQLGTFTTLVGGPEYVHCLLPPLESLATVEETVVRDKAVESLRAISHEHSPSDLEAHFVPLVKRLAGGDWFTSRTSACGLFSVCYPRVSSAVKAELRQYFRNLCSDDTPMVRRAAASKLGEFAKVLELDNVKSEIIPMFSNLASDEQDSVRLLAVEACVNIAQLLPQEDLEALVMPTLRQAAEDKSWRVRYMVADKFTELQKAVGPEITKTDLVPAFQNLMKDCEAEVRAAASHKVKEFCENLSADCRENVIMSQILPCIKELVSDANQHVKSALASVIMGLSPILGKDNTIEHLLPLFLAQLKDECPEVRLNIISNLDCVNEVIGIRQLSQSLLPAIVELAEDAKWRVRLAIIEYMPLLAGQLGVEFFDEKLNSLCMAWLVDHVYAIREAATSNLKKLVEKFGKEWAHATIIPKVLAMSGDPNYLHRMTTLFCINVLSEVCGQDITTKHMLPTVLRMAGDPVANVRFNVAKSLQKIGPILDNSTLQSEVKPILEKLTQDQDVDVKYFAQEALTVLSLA
T2 sequence (Q05209 whole entry): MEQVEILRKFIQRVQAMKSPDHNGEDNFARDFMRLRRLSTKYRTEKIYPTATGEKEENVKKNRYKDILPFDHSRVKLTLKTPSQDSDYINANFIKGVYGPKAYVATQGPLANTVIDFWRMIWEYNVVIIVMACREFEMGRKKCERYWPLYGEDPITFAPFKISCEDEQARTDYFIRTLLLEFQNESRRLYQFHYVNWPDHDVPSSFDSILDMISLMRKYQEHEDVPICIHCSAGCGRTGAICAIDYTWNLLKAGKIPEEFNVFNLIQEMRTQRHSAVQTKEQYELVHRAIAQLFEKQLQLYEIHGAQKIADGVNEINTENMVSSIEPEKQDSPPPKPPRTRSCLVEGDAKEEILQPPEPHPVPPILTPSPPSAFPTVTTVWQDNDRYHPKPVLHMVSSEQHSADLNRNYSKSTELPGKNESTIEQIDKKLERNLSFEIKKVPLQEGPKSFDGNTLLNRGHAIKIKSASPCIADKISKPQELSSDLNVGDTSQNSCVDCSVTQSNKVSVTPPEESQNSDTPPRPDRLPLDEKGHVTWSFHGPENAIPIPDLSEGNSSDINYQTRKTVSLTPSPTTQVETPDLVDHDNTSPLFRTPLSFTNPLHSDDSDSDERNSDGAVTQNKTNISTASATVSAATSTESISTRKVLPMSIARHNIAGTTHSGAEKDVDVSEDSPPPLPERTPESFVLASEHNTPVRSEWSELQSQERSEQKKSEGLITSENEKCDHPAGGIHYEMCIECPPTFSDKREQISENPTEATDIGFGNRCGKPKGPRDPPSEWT

## CC(C)[C@@H](CC[C@@H](C)[C@H]1CC[C@H]2[C@@H]3[C@H](O)C[C@H]4C[C@@H](NCCCNCCCCNCCCN)CC[C@]4(C)[C@H]3CC[C@]12C)OS(=O)(=O)O (single isomer, unassigned) [ENT-02, trodusquemine]
PTPN1/PTP1B; Conc 1.00E−04 M
  % Activity: −0.16%
  Slope (signal/min): −68 signal/min
PTPN1/PTP1B; Conc 1.11E−05 M
  % Activity: 0.68%
  Slope (signal/min): 292 signal/min
PTPN1/PTP1B; Conc 1.23E−06 M
  % Activity: 86.43%
  Slope (signal/min): 37260 signal/min
PTPN1/PTP1B; Conc 1.37E−07 M
  % Activity: 93.11%
  Slope (signal/min): 40137 signal/min
PTPN1/PTP1B; Conc 1.52E−08 M
  % Activity: 102.11%
  Slope (signal/min): 44021 signal/min
PTPN1/PTP1B; Conc 3.33E−05 M
  % Activity: −1.02%
  Slope (signal/min): −440 signal/min
PTPN1/PTP1B; Conc 3.70E−06 M
  % Activity: 38.12%
  Slope (signal/min): 16431 signal/min
PTPN1/PTP1B; Conc 4.12E−07 M
  % Activity: 92.69%
  Slope (signal/min): 39959 signal/min
PTPN1/PTP1B; Conc 4.57E−08 M
  % Activity: 99.09%
  Slope (signal/min): 42717 signal/min
PTPN1/PTP1B; Conc 5.08E−09 M
  % Activity: 100.94%
  Slope (signal/min): 43513 signal/min
PTPN1/PTP1B; IC50 curve fit
  HILLSLOPE: −2.19
PTPN12/PTP-PEST
  activity on PTPN12/PTP-PEST, in words: target
PTPN11/SHP2
  IC50: 3.75e-07 M
PTPN11/SHP2-FL
  activity against full length PTPN11/SHP2, in words: active

## CC(CCCC(C)C1CCC2C3C(O)CC4CC(NCCCNCCCCNCCCN)CCC4(C)C3CCC12C)C(=O)O (single isomer, unassigned; ent-03) [ENT-03, 3-β-Spermino-7α-hydroxy-5α-cholestanoic acid]
[1]
  activity at PP2A alpha, in words: inactive
[1]; Table 2B, read-out: Compound IC50 (M) PP2A Alpha/PP2R1A Complex
  IC50: > 0.0001 M
[2]; ileum, treated aged mice
  number of differentially expressed genes: 1162 genes
[2]; ileum, treated young mice
  number of differentially expressed genes: 80 genes
[2]; jejunum and ileum, both young and aged mice
  genes changed significantly in response to exposure: no more than 2 genes
[2]; jejunum, treated aged mice
  number of differentially expressed genes: 382 genes
[2]; jejunum, treated young mice
  number of differentially expressed genes: 42 genes
[2]; stomach, aged mice, gene named in value
  Ageing genes complemented by ENT-03 (30 most significant) Stomach: shadow of prion protein
[2]; stomach, old mice, P<0.0001 hypergeometric test
  genes down-regulated in ageing overlapping with genes up-regulated by treatment: 37 genes
[2]; stomach, treated aged mice, 40 mg/kg oral daily 2 weeks, p(adj)<0.05
  number of differentially expressed genes: 63 genes
[2]; stomach, treated young (20 week) mice, 40 mg/kg oral daily 2 weeks, p(adj)<0.05
  number of differentially expressed genes: 13 genes
[2]; stomach, young mice
  ageing genes further down regulated in the ageing direction by treatment: 12 genes
[2]; young and aged C57bl/6 male mice, 40 mg/kg oral gavage daily 2 weeks
  clinical observations and gross and microscopic examinations of the GI tract: unremarkable
[3]; Mean of 3 male SD rats
  AUClInf: 986.457 µg·h/mL
  AUClast: 609.005 µg·h/mL
  AUC—%Extrap—obs: 38.2%
  C0: 86.337 µg/mL
  Cl_obs: 5.1 mL/h/kg
  MRTInf—obs: 24.6 h
  T1/2: 18.2 h
  Vss—obs: 0.125 L/kg
[3]; [4]
  AUClInf: 922.477 µg·h/mL and 941.13 µg·h/mL and 1095.763 µg·h/mL
  AUClast: 557.542 µg·h/mL and 608.321 µg·h/mL and 661.154 µg·h/mL
  AUC—%Extrap—obs: 39.6% and 35.4% and 39.7%
  C0: 80.402 µg/mL and 102.409 µg/mL and 76.2 µg/mL
  Cl_obs: 5.42 mL/h/kg and 5.31 mL/h/kg and 4.57 mL/h/kg
  MRTInf—obs: 25.3 h and 22.9 h and 25.5 h
  T1/2: 18.6 h (2×) and 17.5 h
  Vss—obs: 0.137 L/kg and 0.122 L/kg and 0.116 L/kg
PS19 mice
  learning during the training phase: improved
  memory on the probe day: improved
Xenopus leavis tadpole
  effect on tadpole: No similar effect
